Source: patent publication US20260092061A1, “COMPOUNDS FOR TARGETED PROTEIN DEGRADATION” (Amphista Therapeutics Limited, priority 2022, published 2026)

Assays:
[1] = target: T1, BRD9 (Homo sapiens, UniProt Q9H8M2); assay: Degradation of BRD9 (IF), immunofluorescence in MV4-11 cells, 24 hours (Assay Protocol 2); type: cell-based; design: A suspension of MV4-11 cells (ATCC CRL-9591) was prepared; host or cells: MV4-11
T1 sequence (Q9H8M2 1-597): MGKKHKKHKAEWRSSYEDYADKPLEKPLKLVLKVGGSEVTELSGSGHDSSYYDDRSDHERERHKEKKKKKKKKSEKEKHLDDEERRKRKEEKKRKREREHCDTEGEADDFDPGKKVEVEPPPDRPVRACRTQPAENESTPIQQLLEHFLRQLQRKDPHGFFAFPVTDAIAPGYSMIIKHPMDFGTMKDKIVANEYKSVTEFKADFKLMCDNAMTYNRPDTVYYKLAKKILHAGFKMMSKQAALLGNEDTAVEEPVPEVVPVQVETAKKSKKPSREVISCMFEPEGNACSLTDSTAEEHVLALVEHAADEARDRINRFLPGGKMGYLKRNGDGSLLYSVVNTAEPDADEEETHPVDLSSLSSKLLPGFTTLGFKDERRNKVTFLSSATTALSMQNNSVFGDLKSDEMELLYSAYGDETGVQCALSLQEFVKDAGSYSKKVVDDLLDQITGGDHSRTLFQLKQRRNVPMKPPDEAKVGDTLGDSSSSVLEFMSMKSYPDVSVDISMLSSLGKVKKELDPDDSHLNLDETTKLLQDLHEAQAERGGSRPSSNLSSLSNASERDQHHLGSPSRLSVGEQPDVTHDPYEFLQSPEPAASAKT
Summary of the method: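 % BRD9 remaining, scaled between DMSO (high) and 100 nM CFT-8634 (low) control wells, derives from mean Alexa 647 contrast in central nuclei by high-content imaging. MV4-11 cells had 24 h compound exposure at 37° C. before PFA fixation, Triton permeabilisation and anti-BRD9 E4Q3F immunostaining.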

[2] = target: T1, BRD9; assay: BRD9 degradation, HiBiT-BRD9 KI HEK293 (LgBiT) cells, NanoGlo Lytic Endpoint assay (Assay Protocol 1); type: cell-based; settings: BRD9 degradation; for Dmax at 1 µM / Dmax: HEK293; for Dmax at 1 µM: 1 μM compound at 6 h of treatment, read-out: Assay 1 Dmax
Summary of the method: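 HiBiT-tagged BRD9 knock-in HEK293 (LgBiT) cells exposed to compounds for 6 h at 37 °C, 5% CO2. Residual BRD9 measured by HiBiT lytic luminescence. % BRD9 remaining normalised to DMSO-treated cells (high) and no-cell wells (low).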

[3] = MV4-11, 24 h, Table 2, BRD9 degradation (IF), Assay Protocol 2, MV4-11 cells, read-out: Assay 2 DCmax
[4] = Table 2, BRD9 degradation (IF), Assay Protocol 2, MV4-11 cells, read-out: Assay 2 DC50
[5] = Table 2, Assay Protocol 1, 6 h of treatment, read-out: Assay 1 DC50
[6] = Assay protocol 2, BRD9 degradation, read-out: DC50
[7] = MV4-11, Assay protocol 2, BRD9 degradation, read-out: Dmax
[8] = Assay protocol 1, read-out: DC50
[9] = Assay protocol 1, read-out: Dmax
[10] = MV4-11, Table 4, BRD9 degradation, determined according to Assay Protocol 2, read-out: Dmax^2
[11] = Table 4, BRD9 degradation, determined according to Assay Protocol 2, read-out: DC50^2
[12] = Table 4, determined according to Assay Protocol 1, read-out: Dmax^1

| SMILES | DC50 [1, 6] [nM] | Dmax [1, 7] [%] | DC50 [2, 8] [nM] | Dmax [2, 9] [%] | other results |
| --- | --- | --- | --- | --- | --- |
| COc1cc(-c2cn(C)c(=O)c3cc(C(=O)NCCCCCOc4cccc(C5CCCN5C(=O)/C(C#N)=C/c5nccs5)c4)sc23)cc(OC)c1CN(C)C (mixture of isomers) [Compound A76, (E/Z)—N-(5-(3-(1-(2-cyano-3-(thiazol-2-yl)acryloyl)pyrrolidin-2-yl)phenoxy)pentyl)-7-(4-((dimethylamino)methyl)-3,5-dimethoxyphenyl)-5-methyl-4-oxo-4,5-dihydrothieno[3,2-c]pyridine-2-carboxamide] | – | – | – | – | Dmax [1, 3]: 70 to 75%; DC50 [1, 4]: < 1.25 nM; Dmax at 1 µM ([2]; Table 2, Assay Protocol 1): 40 to 70%; DC50 [2, 5]: 25 to 300 nM |
| COc1cc(-c2cn(C)c(=O)c(C)c2C)cc(OC)c1C(=O)N1CC2CC1CN2C(=O)/C(C#N)=C/C(C)(C)C (mixture of isomers) [BRD9t, (E/Z)-2-(5-(2,6-dimethoxy-4-(1,4,5-trimethyl-6-oxo-1,6-dihydropyridin-3-yl)benzoyl)-2,6-diazabicyclo[2.2.1]heptane-2-carbonyl)-4,4-dimethylpent-2-enenitrile] | – | – | – | – | Dmax [1, 10]: > 70%; DC50 [1, 11]: > 200 nM; Dmax [2, 12]: > 70% |
| COc1cc(-c2cn(C)c(=O)c(C)c2C)cc(OC)c1CN1CCC(Oc2cccc3c2CCN(C(=O)/C(C#N)=C/c2cccc(C(F)(F)F)n2)C3C)CC1 (stereo not drawn) [B22] | – | 40 to 70 | – | > 75 | – |
| COc1cc(-c2cn(C)c(=O)c3cnccc23)cc(OC)c1CN1CCN(Cc2cccc3c2CCN(C(=O)/C(C#N)=C/C(C)(C)C)[C@@H]3C)CC1 (single isomer, unassigned) [Compound A25, (E/Z)-2-(5-((4-(2,6-dimethoxy-4-(2-methyl-1-oxo-1,2-dihydro-2,7-naphthyridin-4-yl)benzyl)piperazin-1-yl)methyl)-1-methyl-1,2,3,4-tetrahydroisoquinoline-2-carbonyl)-4,4-dimethylpent-2-enenitrile] | – | – | – | – | Dmax [1, 3]: 40 to 70%; Dmax at 1 µM ([2]; Table 2, Assay Protocol 1): 40 to 70%; DC50 [2, 5]: < 1.25 nM |
| COc1cc(-c2cn(C)c(=O)c3cnccc23)cc(OC)c1CN1CCN(Cc2cccc3c2CCN(C(=O)/C(C#N)=C/C2(C)COC2)C3C)CC1 (mixture of isomers) [Compound A27, (E/Z)-2-(5-((4-(2,6-dimethoxy-4-(2-methyl-1-oxo-1,2-dihydro-2,7-naphthyridin-4-yl)benzyl)piperazin-1-yl)methyl)-1-methyl-1,2,3,4-tetrahydroisoquinoline-2-carbonyl)-3-(3-methyloxetan-3-yl)acrylonitrile] | – | – | – | – | Dmax [1, 3]: 40 to 70%; DC50 [1, 4]: 1.25 to 10 nM; Dmax at 1 µM ([2]; Table 2, Assay Protocol 1): 40 to 70%; DC50 [2, 5]: 1.25 to 10 nM |
| COc1cc(-c2cn(C)c(=O)c(C)c2C)cc(OC)c1CN1C2CC1CN(C(=O)/C(C#N)=C/c1nccs1)C2 (mixture of isomers) [BRD9n, (E/Z)-2-(6-(2,6-dimethoxy-4-(1,4,5-trimethyl-6-oxo-1,6-dihydropyridin-3-yl)benzyl)-3,6-diazabicyclo[3.1.1]heptane-3-carbonyl)-3-(thiazol-2-yl)acrylonitrile] | – | – | – | – | DC50 [1, 11]: 25 to 200 nM; Dmax [2, 12]: 50 to 70% |
| COc1cc(-c2cn(C)c(=O)c(C)c2C)cc(OC)c1CN1CC2CC1CN2Cc1cccc2c1CCN(C(=O)/C(C#N)=C/C(C)(C)C)C2C (mixture of isomers) [Compound A70, (E/Z)-2-(5-((5-(2,6-dimethoxy-4-(1,4,5-trimethyl-6-oxo-1,6-dihydropyridin-3-yl)benzyl)-2,5-diazabicyclo[2.2.1]heptan-2-yl)methyl)-1-methyl-1,2,3,4-tetrahydroisoquinoline-2-carbonyl)-4,4-dimethylpent-2-enenitrile] | – | – | – | – | Dmax [1, 3]: 70 to 75%; DC50 [1, 4]: < 1.25 nM; Dmax at 1 µM ([2]; Table 2, Assay Protocol 1): 40 to 70%; DC50 [2, 5]: 10 to 25 nM |
| COc1cc(-c2cn(C)c(=O)c(C)c2C)cc(OC)c1CN1CCN(C(=O)[C@@H]2CN(C(=O)/C(C#N)=C/C(C)(C)C)C[C@H]2C(C)C)CC1 [Compound B212] | – | – | – | – | Dmax [1, 10]: 50 to 70%; DC50 [1, 11]: 25 to 200 nM; Dmax [2, 12]: 50 to 70%; DC50 ([2]; Table 4, determined according to Assay Protocol 1, read-out: DC50^1): 25 to 200 nM |

Second part, led by results:

| DC50 [1, 6] [nM] | Dmax [1, 7] [%] | DC50 [2, 8] [nM] | Dmax [2, 9] [%] | SMILES | other results |
| --- | --- | --- | --- | --- | --- |
| < 1.25 | > 75 | 1.25 to 10 | > 75 | CCCC(c1ccccc1CCC(=O)N1CCN(Cc2c(OC)cc(-c3cn(C)c(=O)c(C)c3C)cc2OC)CC1)N(C)C(=O)/C(C#N)=C/c1nccs1 (mixture of isomers) [Compound B186, (E/Z)-2-cyano-N-(1-(2-(3-(4-(2,6-dimethoxy-4-(1,4,5-trimethyl-6-oxo-1,6-dihydropyridin-3-yl)benzyl)piperazin-1-yl)-3-oxopropyl)phenyl)butyl)-N-methyl-3-(thiazol-2-yl)acrylamide] | – |
| < 1.25 | > 75 | < 1.25 | > 75 | COc1cc(-c2cn(C)c(=O)c(C)c2C)cc(OC)c1CN1CCN(Cc2cccc3c2CCN(C(=O)/C(C#N)=C/c2nc(C(F)(F)F)cs2)C3C)CC1 (mixture of isomers) [Compound B11, (E/Z)-2-(5-((4-(2,6-dimethoxy-4-(1,4,5-trimethyl-6-oxo-1,6-dihydropyridin-3-yl)benzyl)piperazin-1-yl)methyl)-1-methyl-1,2,3,4-tetrahydroisoquinoline-2-carbonyl)-3-(4-(trifluoromethyl)thiazol-2-yl)acrylonitrile] | – |
| – | 40 to 70 | – | 40 to 70 | COc1cc(-c2cn(C)c(=O)c3ccsc23)cc(OC)c1CN1CCN(Cc2cccc3c2CCN(C(=O)/C(C#N)=C/C(C)(C)C)C3C)CC1 (mixture of isomers) [Compound B59, (E/Z)-2-(5-((4-(2,6-dimethoxy-4-(5-methyl-4-oxo-4,5-dihydrothieno[3,2-c]pyridin-7-yl)benzyl)piperazin-1-yl)methyl)-1-methyl-1,2,3,4-tetrahydroisoquinoline-2-carbonyl)-4,4-dimethypent-2-enenitrile] | – |
| < 1.25 | 40 to 70 | < 1.25 | 40 to 70 | COc1cc(-c2cn(C)c(=O)c(C)c2C)cc(OC)c1CN1CCC2(C1)CN(c1cccc3c1CCN(C(=O)/C(C#N)=C/C(C)(C)C)C3C)C2 (mixture of isomers) [Compound B40, (E/Z)-2-(5-(6-(2,6-dimethoxy-4-(1,4,5-trimethyl-6-oxo-1,6-dihydropyridin-3-yl)benzyl)-2,6-diazaspiro[3.4]octan-2-yl)-1-methyl-1,2,3,4-tetrahydroisoquinoline-2-carbonyl)-4,4-dimethylpent-2-enenitrile] | – |
| 10 to 25 | > 75 | 1.25 to 10 | > 75 | COc1cc(-c2cn(C)c(=O)c(C)c2C)cc(OC)c1CN1C[C@H](C)N(Cc2cccc3c2CCN(C(=O)/C(C#N)=C/C(C)(C)C)C3C)C[C@H]1C (mixture of isomers) [Compound B122, (E/Z)-2-(5-(((2S,5R)-4-(2,6-dimethoxy-4-(1,4,5-trimethyl-6-oxo-1,6-dihydropyridin-3-yl)benzyl)-2,5-dimethylpiperazin-1-yl)methyl)-1-methyl-1,2,3,4-tetrahydroisoquinoline-2-carbonyl)-4,4-dimethylpent-2-enenitrile] | – |
| – | 40 to 70 | 10 to 25 | 40 to 70 | COc1cc(-c2cn(C)c(=O)c(C)c2C)cc(OC)c1CN1CCN(c2ccc(C3CCCN3C(=O)/C(C#N)=C/C(C)(C)C)cc2)CC1 (mixture of isomers) [Compound B42, (E/Z)-2-(2-(4-(4-(2,6-dimethoxy-4-(1,4,5-trimethyl-6-oxo-1,6-dihydropyridin-3-yl)benzyl)piperazin-1-yl)phenyl)pyrrolidine-1-carbonyl)-4,4-dimethylpent-2-enenitrile] | – |
| < 1.25 | > 75 | < 1.25 | > 75 | COc1cc(-c2cn(C)c(=O)c(C)c2C)cc(OC)c1CN1CCN(Cc2cccc3c2CCN(C(=O)/C(C#N)=C\C(C)(C)CF)C3C)C2(CC2)C1 (mixture of isomers) [Compound B125, (E/Z)-2-(5-((7-(2,6-dimethoxy-4-(1,4,5-trimethyl-6-oxo-1,6-dihydropyridin-3-yl)benzyl)-4,7-diazaspiro[2.5]octan-4-yl)methyl)-1-methyl-1,2,3,4-tetrahydroisoquinoline-2-carbonyl)-5-fluoro-4,4-dimethylpent-2-enenitrile] | – |
